{
  "source": "patent US5371102A",
  "about": "“Compositions and methods of inhibiting thyroid activity” (priority 1993, dated 1994)",
  "key": {"[1]": {"target": "T1, LPX (Bos taurus, UniProt P80025)", "T1 construct": "purchased Sigma Chemical Company", "experiment": "LPX-catalyzed iodide ion oxidation (triiodide formation)", "assay_type": "biochemical, bovine", "conditions": "LPX, H2O2, iodide ion", "description": "Materials used in the examples below were obtained from the following sources. Bovine LPX, bovine liver catalase, glucose oxidase, 30% hydrogen peroxide, glucose, guaiacol, ABTS and deuterium oxide were purchased from Sigma Chemical Company. Selenium dioxide, MBI ^13 CH3 I and PBA were purchased from Aldrich Chemical Company and PBA was purified as previously described by Fieset et al., Reagents for Organic Synthesis, Vol. I, pp.135-139, John Wiley and Sons, N.Y. (1967). LPX purity was checked by PAGE, as described by Doerge, D.R., et al. in, Biochem. Pharmacol., Vol.36, pp.972-974 (1986). TPX was purified from hog thyroids obtained from a local slaughterhouse by published procedures. Doerge & Takazowa, Chemical Research in Toxicology, Vol. 3, pp. 98-101 (1990). TPX purity was determined by LC and its concentration determined spectophotometrically. Hydroperoxide concentrations were determined by iodometric titration, as described by Kolthoff, et al., in \"Quantitative Chemical Analysis\", Macmillan, London, pp.842-860 (1969). MMBI, and BI were synthesized by published procedures as described by Doerge, D.R., Biochem, Vol. 27, pp. 3697-3700 (1988) and were recrystallized from aqueous ethanol. MeBI was purified by distillation and DMeBI^+ was synthesized and purified by recrystallization from ethyl acetate/methanol. 1-^13 C-MMBI was synthesized from ^13 CH3 I according to the procedure disclosed by Doerge, D.R., in, J. Lab. Comp. and Radiopharm., Vol.25, pp.985-990 (1988). PPHP and PPA were prepared, purified and analyzed as previously described by Doerge, Biochem, Vol.27, p.11 (1988). The methyl ester of 1-methyl-benzimidazole-2-sulfinic acid was prepared by addition of hydrogen peroxide (5 equivalents of a 10 M solution) to MMBI (0.1 M) in methanol. […]\nInhibition of LPX activity by thiones was determined from the kinetics of iodide ion, guaiacol or ABTS oxidation assays conducted at 25° C. Kinetic parameters of suicide inactivation were determined as previously described. […]"}, "[2]": {"target": "T1, LPX", "experiment": "LPX iodide ion oxidation activity after incubation and dilution", "assay_type": "biochemical, bovine", "conditions": "LPX/hydrogen peroxide, absence of iodide ion", "description": "Materials used in the examples below were obtained from the following sources. Bovine LPX, bovine liver catalase, glucose oxidase, 30% hydrogen peroxide, glucose, guaiacol, ABTS and deuterium oxide were purchased from Sigma Chemical Company. Selenium dioxide, MBI ^13 CH3 I and PBA were purchased from Aldrich Chemical Company and PBA was purified as previously described by Fieset et al., Reagents for Organic Synthesis, Vol. I, pp.135-139, John Wiley and Sons, N.Y. (1967). LPX purity was checked by PAGE, as described by Doerge, D.R., et al. in, Biochem. Pharmacol., Vol.36, pp.972-974 (1986). TPX was purified from hog thyroids obtained from a local slaughterhouse by published procedures. Doerge & Takazowa, Chemical Research in Toxicology, Vol. 3, pp. 98-101 (1990). TPX purity was determined by LC and its concentration determined spectophotometrically. Hydroperoxide concentrations were determined by iodometric titration, as described by Kolthoff, et al., in \"Quantitative Chemical Analysis\", Macmillan, London, pp.842-860 (1969). MMBI, and BI were synthesized by published procedures as described by Doerge, D.R., Biochem, Vol. 27, pp. 3697-3700 (1988) and were recrystallized from aqueous ethanol. MeBI was purified by distillation and DMeBI^+ was synthesized and purified by recrystallization from ethyl acetate/methanol. 1-^13 C-MMBI was synthesized from ^13 CH3 I according to the procedure disclosed by Doerge, D.R., in, J. Lab. Comp. and Radiopharm., Vol.25, pp.985-990 (1988). PPHP and PPA were prepared, purified and analyzed as previously described by Doerge, Biochem, Vol.27, p.11 (1988). The methyl ester of 1-methyl-benzimidazole-2-sulfinic acid was prepared by addition of hydrogen peroxide (5 equivalents of a 10 M solution) to MMBI (0.1 M) in methanol. The products, MeBI and the ester, were obtained following preparative TLC on silica (Uniplate, Analtech Co., Newark, DL) using 5% methanol/chloroform as eluant.\nThe following experiment was performed to determine the effect of DMMBI oxidation on LPX activity. LPX (0.1 μM, final concentration) was incubated with hydrogen peroxide (100 μM), iodide ion (5 mM) and DMMBI (100 μM), as indicated in Table 2. After a 100 second incubation at 25° C., an aliquot was diluted 200-fold and the iodide ion oxidation activity determined. Values shown in Table 2, are averages +/- standard deviations (n=4) of the percentage relative to untreated LPX."}, "[3]": {"tested_on": "LPX and TPX", "experiment": "suicide inhibition of peroxidases (summary statements)", "assay_type": "biochemical"}, "[4]": {"tested_on": "peroxidase", "experiment": "peroxidase/H2O2/I- triiodide formation with DMIT", "assay_type": "biochemical", "conditions": "H2O2 and I-, varying quantities of DMIT", "method": "DMIT was synthesized according to the published method by Maier, Helv. Chim. Acta, Vol. 53, p. 1417 (1970). Varying quantities of DMIT were incubated with peroxidase, H2 O2 and I^-. Triiodide formation was observed spectrophotometrically as a function of time. […] An initial lag phase was dependent on the amount of thione used, followed by a rate increase to approximately the control rate."}},
  "data": [
    {"smiles": "CN1CCN(C)C1=S", "note": "[DMIT, 1,3-dimethylimidazolidine-2-thione]", "values": [
      {"measurement": "inhibition of iodide ion oxidation (triiodide formation)", "setting": "[1]", "value": "Identical results"},
      {"measurement": "loss of enzymatic activity", "setting": "[2]", "value": "did not cause any loss of enzymatic activity"},
      {"measurement": "selectivity for iodide ion oxidation", "setting": "[3]; alternate substrate mechanism", "value": "block only reactions involving iodide ion oxidation"},
      {"measurement": "suicide inhibition", "setting": "[3]; summary of own examples", "value": "not suicide inhibitors"},
      {"measurement": "effect on triiodide formation", "setting": "[4]", "value": "substantially the same as reported for DMMBI in Example 1 and Ac2 MBI in Example 2"}
    ]}
  ]
}
